“And” between values parts separate entries of the source, which are not always exact repeats. Equal values may be shown once. Marks after values point to notes of the source that are not given here. Square brackets hold non-standard residues; d marks the D form. Peptide text beside a SMILES is read from it. * marks the point of attachment. Dolaproine = CO[C@@H]([C@@H]1CCCN1)[C@@H](C)C(=O)O; Dil = CC[C@H](C)[C@H](NC)[C@@H](CC(=O)O)OC; X1 = C[C@@H](N*)[C@@H](O)c1ccccc1; NMeV = CN[C@H](C(=O)O)C(C)C
Tested on: NCI-N87 (ATCC CRL-5822) human gastric carcinoma
Assay: Xenograft tumor model of human gastric carcinoma NCI-N87 in female nu/nu mice: tumor volume, T/C, TGI
Type: in vivo, mouse
Settings: for Tumor Volume (mm^3), individual animals / Tumor Volume, individual animal / Tumor Volume, individual mouse: 0.191 mg/kg; for Tumor Volume, individual mouse: individual animals
Description: In a xenograft tumor model of human gastric carcinoma, viable NCI-N87 (ATCC CRL-5822) cells were subcutaneously (SC) implanted (2.5×10^6 cells/mL with matrigel (1:1) at 0.2 mL/mouse) into the right flank of female nu/nu mice. Tumor implanted mice were divided into seven treatment groups, each group containing eight animals, and one group containing five animals, and dose administrations were initiated one day after cell implantation (denoted as Day 1).
Viable human gastric carcinoma NCI-N87 (ATCC CRL-5822) cell line was purchased and cultured in Eurofins Panlabs Taiwan, Ltd. The cells were cultured in RPMI-1640 medium containing 10% fetal bovine serum (FBS) at 37° C. in 5% CO2 incubator and implanted subcutaneously in the right flank of each mouse.
Female nude (nu/nu) mice aged 5-6 weeks obtained from BioLasco Taiwan (under Charles River Laboratories Licensee) were used. The animals were housed in individually ventilated cages (IVC, 36 Mini Isolator system). The allocation for 3 animals was 27×20×14 in cm. All animals were maintained in a hygienic environment under controlled temperature (20-24° C.) and humidity (30%-70%) with 12-hour light/dark cycle. Free access to standard lab diet [MFG (Oriental Yeast Co., Ltd., Japan)] and autoclaved tap water in bottles were granted. All aspects of this work including housing, experimentation, and animal disposal were performed in general accordance with the “Guide for the Care and Use of Laboratory Animals: Eighth Edition” (National Academies Press, Washington, D.C., 2011) in our AAALAC-accredited laboratory animal facility. In addition, the animal care and use protocol was reviewed and approved by the IACUC at Eurofins Panlabs Taiwan, Ltd.
The tumor volumes, body weights, mortality, and signs of overt toxicity were monitored and recorded twice weekly for 100 days. Tumor growth inhibition was calculated as T/C (treatment/control)×100%. A T/C value≤42% compared to that of the vehicle control group was considered significant anti-tumor activity. Two-way ANOVA followed by Bonferroni test was used to ascertain the statistically significant significance of groups compared to respective vehicle control (*p<0.05).

[1] = Day 1, 0.191 mg/kg × 4 IP once weekly
[2] = Day 4, 0.191 mg/kg × 4 IP once weekly
[3] = Day 8, 0.191 mg/kg × 4 IP once weekly
[4] = Day 11, 0.191 mg/kg × 4 IP once weekly
[5] = Day 15, 0.191 mg/kg × 4 IP once weekly
[6] = Day 18, 0.191 mg/kg × 4 IP once weekly
[7] = Day 22, 0.191 mg/kg × 4 IP once weekly
[8] = Day 25, 0.191 mg/kg × 4 IP once weekly
[9] = Day 29, 0.191 mg/kg × 4 IP once weekly
[10] = Day 32, 0.191 mg/kg × 4 IP once weekly
[11] = Day 36, 0.191 mg/kg × 4 IP once weekly
[12] = Day 39, 0.191 mg/kg × 4 IP once weekly
[13] = Day 43, 0.191 mg/kg × 4 IP once weekly
[14] = Day 46, 0.191 mg/kg × 4 IP once weekly
[15] = Day 50, 0.191 mg/kg × 4 IP once weekly
[16] = Day 53, 0.191 mg/kg × 4 IP once weekly

CC[C@H](C)[C@@H]([C@@H](CC(=O)N1CCC[C@H]1[C@H](OC)[C@@H](C)C(=O)N[C@H](C)[C@@H](O)c1ccccc1)OC)N(C)C(=O)[C@@H](NC(=O)[C@@H](NC)C(C)C)C(C)C [MMAE, monomethyl auristatin E] (H-[NMeV]V[Dil][Dolaproine]-X1)
maximum percent TGI (0.191 mg/kg IP once weekly for four weeks, Day 53): 53% | anti-tumor activity (in words) (0.191 mg/kg IP once weekly for four weeks, over the course of the study): moderate anti-tumor activity | Tumor Volume (mm^3), Mean [1]: 96 mm^3 | Tumor Volume (mm^3), individual animals [1]: 61 mm^3 and 89 mm^3 and 83 mm^3 and 88 mm^3 (2×) and 125 mm^3 and 110 mm^3 and 121 mm^3 | % T/C [2]: 88% | % TGI [2]: 12% | Tumor Volume (mm^3), Mean [2]: 109 mm^3 | Tumor Volume (mm^3), individual animals [2]: 106 mm^3 and 102 mm^3 and 115 mm^3 (3×) and 104 mm^3 and 109 mm^3 | % T/C [3]: 83% | % TGI [3]: 17% | Tumor Volume (mm^3), Mean [3]: 122 mm^3 | Tumor Volume (mm^3), individual animals [3]: 117 mm^3 and 142 mm^3 and 127 mm^3 and 115 mm^3 and 110 mm^3 and 125 mm^3 and 119 mm^3 | % T/C [4]: 59% | % TGI [4]: 41% | Tumor Volume (mm^3), Mean [4]: 165 mm^3 | Tumor Volume (mm^3), individual animals [4]: 162 mm^3 and 158 mm^3 and 137 mm^3 and 169 mm^3 and 174 mm^3 and 187 mm^3 and 166 mm^3 | % T/C [5]: 60% | % TGI [5]: 40% | Tumor Volume (mm^3), Mean [5]: 189 mm^3 | Tumor Volume (mm^3), individual animals [5]: 153 mm^3 and 189 mm^3 (2×) and 178 mm^3 and 231 mm^3 and 175 mm^3 and 208 mm^3 | % T/C [6]: 57% | % TGI [6]: 43% | Tumor Volume (mm^3), Mean [6]: 218 mm^3 | Tumor Volume (mm^3), individual animals [6]: 152 mm^3 and 213 mm^3 and 234 mm^3 and 255 mm^3 and 231 mm^3 and 228 mm^3 and 211 mm^3 | % T/C [7]: 54% | % TGI [7]: 46% | Tumor Volume (mm^3), Mean [7]: 252 mm^3 | Tumor Volume (mm^3), individual animals [7]: 144 mm^3 and 201 mm^3 and 246 mm^3 and 303 mm^3 and 252 mm^3 and 322 mm^3 and 296 mm^3 | % T/C [8]: 53% | % TGI [8]: 47% | Tumor Volume (mm^3), Mean [8]: 277 mm^3 | Tumor Volume (mm^3), individual animals [8]: 146 mm^3 and 216 mm^3 and 259 mm^3 and 356 mm^3 and 315 mm^3 and 353 mm^3 and 296 mm^3 | % T/C [9]: 59% | % TGI [9]: 41% | Tumor Volume, Mean [9]: 371* mm^3 | Tumor Volume, individual animal [9]: 162 mm^3 and 277 mm^3 and 399 mm^3 and 406 mm^3 and 439 mm^3 and died and 525 mm^3 and 387 mm^3 | % T/C [10]: 54% | % TGI [10]: 46% | Tumor Volume, Mean [10]: 389* mm^3 | Tumor Volume, individual animal [10]: 160 mm^3 and 318 mm^3 and 397 mm^3 and 385 mm^3 and 446 mm^3 and died and 584 mm^3 and 432 mm^3 | % T/C [11]: 50% | % TGI [11]: 50% | Tumor Volume, Mean [11]: 406* mm^3 | Tumor Volume, individual animal [11]: 94 mm^3 and 345 mm^3 and 390 mm^3 and 389 mm^3 and 506 mm^3 and died and 658 mm^3 and 459 mm^3 | % T/C [12]: 47% | % TGI [12]: 53% | Tumor Volume, Mean [12]: 431* mm^3 | Tumor Volume, individual animal [12]: 94 mm^3 and 385 mm^3 and 407 mm^3 and 442 mm^3 and 530 mm^3 and died and 671 mm^3 and 487 mm^3 | % T/C [13]: 48% | % TGI [13]: 52% | Tumor Volume, Mean [13]: 477* mm^3 | Tumor Volume, individual animal [13]: 97 mm^3 and 414 mm^3 and 429 mm^3 and 489 mm^3 and 581 mm^3 and died and 780 mm^3 and 549 mm^3 | % T/C [14]: 51% | % TGI [14]: 49% | Tumor Volume, Mean [14]: 555* mm^3 | Tumor Volume, individual animal [14]: 91 mm^3 and 606 mm^3 and 535 mm^3 and 495 mm^3 and 719 mm^3 and died and 878 mm^3 and 561 mm^3 | % T/C [15]: 49% | % TGI [15]: 51% | Tumor Volume, Mean [15]: 589* mm^3 | Tumor Volume, individual animal [15]: 89 mm^3 and 623 mm^3 and 569 mm^3 and 550 mm^3 and 766 mm^3 and died and 936 mm^3 and 590 mm^3 | % T/C [16]: 47% | % TGI [16]: 53% | Tumor Volume, Mean [16]: 639* mm^3 | Tumor Volume, individual animal [16]: 88 mm^3 and 682 mm^3 and 590 mm^3 and 581 mm^3 and 816 mm^3 and died and 1094 mm^3 and 620 mm^3 | Tumor Volume, Mean (Day 57, 0.191 mg/kg × 4 IP (Once weekly), group mean): 676 mm^3 | Tumor Volume, individual mouse (Day 57, 0.191 mg/kg × 4 IP (Once weekly)): 85 mm^3 and 694 mm^3 and 663 mm^3 and 627 mm^3 and 870 mm^3 and 1141 mm^3 and 650 mm^3 | Tumor Volume, Mean (Day 60, 0.191 mg/kg × 4 IP (Once weekly), group mean): 720 mm^3 | Tumor Volume, individual mouse (Day 60, 0.191 mg/kg × 4 IP (Once weekly)): 83 mm^3 and 745 mm^3 and 783 mm^3 and 664 mm^3 and 854 mm^3 and 1234 mm^3 and 676 mm^3 | Tumor Volume, Mean (Day 64, 0.191 mg/kg × 4 IP (Once weekly), group mean): 747 mm^3 | Tumor Volume, individual mouse (Day 64, 0.191 mg/kg × 4 IP (Once weekly)): 82 mm^3 and 765 mm^3 and 788 mm^3 and 702 mm^3 and 920 mm^3 and 1272 mm^3 and 703 mm^3 | Tumor Volume, Mean (Day 67, 0.191 mg/kg × 4 IP (Once weekly), group mean): 818 mm^3 | Tumor Volume, individual mouse (Day 67, 0.191 mg/kg × 4 IP (Once weekly)): 79 mm^3 and 883 mm^3 and 827 mm^3 and 726 mm^3 and 1070 mm^3 and 1300 mm^3 and 840 mm^3 | Tumor Volume, Mean (Day 70, 0.191 mg/kg × 4 IP (Once weekly), group mean): 846 mm^3 | Tumor Volume, individual mouse (Day 70, 0.191 mg/kg × 4 IP (Once weekly)): 76 mm^3 and 943 mm^3 and 870 mm^3 and 726 mm^3 and 1090 mm^3 and 1358 mm^3 and 859 mm^3 | Tumor Volume, Mean (Day 74, 0.191 mg/kg × 4 IP (Once weekly), group mean): 901 mm^3 | Tumor Volume, individual mouse (Day 74, 0.191 mg/kg × 4 IP (Once weekly)): 74 mm^3 and 1012 mm^3 and 909 mm^3 and 856 mm^3 and 1117 mm^3 and 1422 mm^3 and 916 mm^3 | Tumor Volume, Mean (Day 78, 0.191 mg/kg × 4 IP (Once weekly), group mean): 931 mm^3 | Tumor Volume, individual mouse (Day 78, 0.191 mg/kg × 4 IP (Once weekly)): 74 mm^3 and 1042 mm^3 and 955 mm^3 and 890 mm^3 and 1197 mm^3 and 1431 mm^3 and 928 mm^3 | Tumor Volume, Mean (Day 81, 0.191 mg/kg × 4 IP (Once weekly), group mean): 951 mm^3 | Tumor Volume, individual mouse (Day 81, 0.191 mg/kg × 4 IP (Once weekly)): 77 mm^3 and 1064 mm^3 and 961 mm^3 and 903 mm^3 and 1197 mm^3 and 1517 mm^3 and 935 mm^3 | Tumor Volume, Mean (Day 85, 0.191 mg/kg × 4 IP (Once weekly), group mean): 1002 mm^3 | Tumor Volume, individual mouse (Day 85, 0.191 mg/kg × 4 IP (Once weekly)): 77 mm^3 and 1097 mm^3 and 1033 mm^3 and 933 mm^3 and 1331 mm^3 and 1558 mm^3 and 988 mm^3 | Tumor Volume, Mean (Day 88, 0.191 mg/kg × 4 IP (Once weekly), group mean): 1032 mm^3 | Tumor Volume, individual mouse (Day 88, 0.191 mg/kg × 4 IP (Once weekly)): 74 mm^3 and 1104 mm^3 and 1117 mm^3 and 933 mm^3 and 1346 mm^3 and 1626 mm^3 and 1023 mm^3 | Tumor Volume, Mean (Day 91, 0.191 mg/kg × 4 IP (Once weekly), group mean): 1037 mm^3 | Tumor Volume, individual mouse (Day 91, 0.191 mg/kg × 4 IP (Once weekly)): 72 mm^3 and 1122 mm^3 and 1130 mm^3 and 933 mm^3 and 1346 mm^3 and 1636 mm^3 and 1023 mm^3 | Tumor Volume, Mean (Day 95, 0.191 mg/kg × 4 IP (Once weekly), group mean): 1060 mm^3 | Tumor Volume, individual mouse (Day 95, 0.191 mg/kg × 4 IP (Once weekly)): 68 mm^3 and 1192 mm^3 and 1184 mm^3 and 947 mm^3 and 1354 mm^3 and 1646 mm^3 and 1029 mm^3 | Tumor Volume, Mean (Day 98, 0.191 mg/kg × 4 IP (Once weekly), group mean): 1101 mm^3 | Tumor Volume, individual mouse (Day 98, 0.191 mg/kg × 4 IP (Once weekly)): 68 mm^3 and 1215 mm^3 and 1265 mm^3 and 1061 mm^3 and 1398 mm^3 and 1656 mm^3 and 1043 mm^3 | Tumor Volume, Mean (Day 100, 0.191 mg/kg × 4 IP (Once weekly), group mean): 1106 mm^3 | Tumor Volume, individual mouse (Day 100, 0.191 mg/kg × 4 IP (Once weekly)): 62 mm^3 and 1254 mm^3 and 1273 mm^3 and 1076 mm^3 and 1444 mm^3 and 1590 mm^3 and 1043 mm^3

From patent publication US11000601B2, “Conjugated biological molecules, pharmaceutical compositions and methods” (OBI Pharma, Inc., priority 2016, dated 2021)
